Data: paper PMC10729961, “Putative purine nucleoside interacting residues in the malaria parasite purine uptake transporter PfENT1 are critical for transporter function” (PLOS ONE, 2023)

Experiments:
Assay in all cases: [3H]adenosine uptake assay, competition with cold uridine
Type in all cases: cell-based
PfENT1 S49C = target: T1, PfENT1 S49C (Plasmodium falciparum, UniProt Q8IDM6, S49C)
T1 construct: expressed in transfected cells; host or cells: purine auxotrophic yeast (ade2Δ, fui1Δ), pCM189 episomal plasmid
Experimental: (§1) The radiolabeled uptake assay measures the ability of an unlabeled purine or pyrimidine substrate to inhibit the uptake of radiolabeled substrate into yeast via PfENT1 as previously described. Yeast strains containing PfENT1 (mutant or WT) were grown overnight in SDM media to a final OD600 between 0.2 and 0.5. Purine auxotrophic yeast used as a negative control were grown in YPD media. Yeast were spun down and washed three times with 15 mL phosphate buffered saline (PBS; 137 mM NaCl, 2.7 mM KCl, 10 mM KH2PO4, 10 mM Na2HPO4, pH 7.4). The final volume of yeast in PBS varied but it was diluted to a final OD600 = 0.2. […] For the dilution series, unlabeled purine/pyrimidine (Fischer Scientific Cat. #12-565-501) with a starting concentration of 25 mM was serially diluted 1:3 in PBS for a final concentration range of 3.28 nM to 6.25 mM. Yeast were incubated with radioactive substrate and the unlabeled purine/pyrimidine for 15 min. […] This ensured that competition only occurred at the transporter and not at cytoplasmic metabolic enzymes, because those are different for purines and pyrimidines. For determination of minimal and maximal uptake, yeast strains were incubated without radioactivity or with radioactivity but no cold substrate competition, respectively. […] Mats were allowed to air dry and sealed in sample bags with 5 mL of BetaPlate Scint scintillant cocktail (Perkin Elmer Cat. #1205–4401). The amount of radioactivity in each well was measured by liquid scintillation counting using a 1450 MicroBeta TriLux (Perkin Elmer). The counts per minute (cpm) were recorded and technical triplicates were averaged. IC50 values were calculated, and statistical analysis was performed using GraphPad/Prism9 software. Each experiment was repeated at least three times on separate days.
(§2) Statistical significance was calculated using one-way analysis of variance (ANOVA) with GraphPad/Prism9 software. IC50 values were calculated using the non-linear regression dose-response inhibition log(inhibitor) vs normalized response program. Cpm data was background subtracted by the cpm in yeast expressing WT PfENT1 in cold purine/pyrimidine. Data was normalized to the highest value for each mutant.

PfENT1 A134C = target: T2, PfENT1 A134C (Plasmodium falciparum, UniProt Q8IDM6, A134C)
T2 construct: expressed in transfected cells; host or cells: purine auxotrophic yeast (ade2Δ, fui1Δ), pCM189 episomal plasmid
Experimental: as §1, §2

PfENT1 D287C = target: T3, PfENT1 D287C (Plasmodium falciparum, UniProt Q8IDM6, D287C); conditions: cold uridine vs [3H]adenosine uptake, 15 min
T3 construct: expressed in transfected cells; host or cells: purine auxotrophic Saccharomyces cerevisiae (ade2Δ, fui1Δ), pCM189 episomal plasmid
Experimental: as §1, §2

PfENT1 Q135C = target: T4, PfENT1 Q135C (Plasmodium falciparum, UniProt Q8IDM6, Q135C); conditions: cold uridine vs [3H]adenosine uptake, 15 min
T4 construct: expressed in transfected cells; host or cells: purine auxotrophic yeast (ade2Δ, fui1Δ), pCM189 episomal plasmid
Experimental: as §1, §2

PfENT1 F288C = target: T5, PfENT1 F288C (Plasmodium falciparum, UniProt Q8IDM6, F288C)
T5 construct: expressed in transfected cells; host or cells: purine auxotrophic Saccharomyces cerevisiae (ade2Δ, fui1Δ), pCM189 episomal plasmid
Experimental: as §1, §2

WT PfENT1 = target: T6, WT PfENT1 (Plasmodium falciparum, UniProt Q8IDM6)
T6 construct: expressed in transfected cells; host or cells: purine auxotrophic yeast (ade2Δ, fui1Δ), pCM189 episomal plasmid
Experimental: as §1, §2

PfENT1 S48C = target: T7, PfENT1 S48C (Plasmodium falciparum, UniProt Q8IDM6, S48C)
T7 construct: expressed in transfected cells; host or cells: purine auxotrophic yeast (ade2Δ, fui1Δ), pCM189 episomal plasmid
Experimental: as §1, §2

[1] = tested on: purine auxotrophic yeast (ade2Δ, fui1Δ); conditions: ade2Δ strain; cold uridine vs [3H]adenosine uptake, 15 min
Experimental: as §1, §2

PfENT1 S290C = target: T8, PfENT1 S290C (Plasmodium falciparum, UniProt Q8IDM6, S290C); conditions: cold uridine vs [3H]adenosine uptake, 15 min
T8 construct: expressed in transfected cells; host or cells: purine auxotrophic Saccharomyces cerevisiae (ade2Δ, fui1Δ), pCM189 episomal plasmid
Experimental: as §1, §2

PfENT1 W53C = target: T9, PfENT1 W53C (Plasmodium falciparum, UniProt Q8IDM6, W53C); conditions: cold uridine vs [3H]adenosine uptake, 15 min
T9 construct: expressed in transfected cells; host or cells: purine auxotrophic yeast (ade2Δ, fui1Δ), pCM189 episomal plasmid
Experimental: as §1, §2

PfENT1 L50C = target: T10, PfENT1 L50C (Plasmodium falciparum, UniProt Q8IDM6, L50C); conditions: cold uridine vs [3H]adenosine uptake, 15 min
T10 construct: expressed in transfected cells; host or cells: purine auxotrophic yeast (ade2Δ, fui1Δ), pCM189 episomal plasmid
Experimental: as §1, §2

PfENT1 T136C = target: T11, PfENT1 T136C (Plasmodium falciparum, UniProt Q8IDM6, T136C)
T11 construct: expressed in transfected cells; host or cells: purine auxotrophic yeast (ade2Δ, fui1Δ), pCM189 episomal plasmid
Experimental: as §1, §2

PfENT1 R291C = target: T12, PfENT1 R291C (Plasmodium falciparum, UniProt Q8IDM6, R291C); conditions: cold uridine vs [3H]adenosine uptake, 15 min
T12 construct: expressed in transfected cells; host or cells: purine auxotrophic Saccharomyces cerevisiae (ade2Δ, fui1Δ), pCM189 episomal plasmid
Experimental: as §1, §2

PfENT1 N51C = target: T13, PfENT1 N51C (Plasmodium falciparum, UniProt Q8IDM6, N51C)
T13 construct: expressed in transfected cells; host or cells: purine auxotrophic yeast (ade2Δ, fui1Δ), pCM189 episomal plasmid
Experimental: as §1, §2

PfENT1 F286C = target: T14, PfENT1 F286C (Plasmodium falciparum, UniProt Q8IDM6, F286C)
T14 construct: expressed in transfected cells; host or cells: purine auxotrophic yeast (ade2Δ, fui1Δ), pCM189 episomal plasmid
Experimental: as §1, §2

PfENT1 L289C = target: T15, PfENT1 L289C (Plasmodium falciparum, UniProt Q8IDM6, L289C)
T15 construct: expressed in transfected cells; host or cells: purine auxotrophic Saccharomyces cerevisiae (ade2Δ, fui1Δ), pCM189 episomal plasmid
Experimental: as §1, §2

PfENT1 I137C = target: T16, PfENT1 I137C (Plasmodium falciparum, UniProt Q8IDM6, I137C)
T16 construct: expressed in transfected cells; host or cells: purine auxotrophic yeast (ade2Δ, fui1Δ), pCM189 episomal plasmid
Experimental: as §1, §2

PfENT1 V52C = target: T17, PfENT1 V52C (Plasmodium falciparum, UniProt Q8IDM6, V52C)
T17 construct: expressed in transfected cells; host or cells: purine auxotrophic yeast (ade2Δ, fui1Δ), pCM189 episomal plasmid
Experimental: as §1, §2

T15 sequence (Q8IDM6 whole entry L289C): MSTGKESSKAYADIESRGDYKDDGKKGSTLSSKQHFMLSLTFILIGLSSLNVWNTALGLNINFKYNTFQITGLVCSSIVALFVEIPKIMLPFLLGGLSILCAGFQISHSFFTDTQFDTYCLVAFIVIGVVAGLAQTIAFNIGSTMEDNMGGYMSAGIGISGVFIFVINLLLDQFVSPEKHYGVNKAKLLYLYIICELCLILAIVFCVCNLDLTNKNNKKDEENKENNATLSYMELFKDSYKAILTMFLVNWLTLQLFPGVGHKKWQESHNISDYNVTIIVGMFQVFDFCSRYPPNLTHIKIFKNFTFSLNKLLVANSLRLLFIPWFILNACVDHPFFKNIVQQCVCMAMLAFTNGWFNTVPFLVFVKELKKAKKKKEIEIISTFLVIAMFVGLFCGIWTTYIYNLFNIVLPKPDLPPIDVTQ
T16 sequence (Q8IDM6 whole entry I137C): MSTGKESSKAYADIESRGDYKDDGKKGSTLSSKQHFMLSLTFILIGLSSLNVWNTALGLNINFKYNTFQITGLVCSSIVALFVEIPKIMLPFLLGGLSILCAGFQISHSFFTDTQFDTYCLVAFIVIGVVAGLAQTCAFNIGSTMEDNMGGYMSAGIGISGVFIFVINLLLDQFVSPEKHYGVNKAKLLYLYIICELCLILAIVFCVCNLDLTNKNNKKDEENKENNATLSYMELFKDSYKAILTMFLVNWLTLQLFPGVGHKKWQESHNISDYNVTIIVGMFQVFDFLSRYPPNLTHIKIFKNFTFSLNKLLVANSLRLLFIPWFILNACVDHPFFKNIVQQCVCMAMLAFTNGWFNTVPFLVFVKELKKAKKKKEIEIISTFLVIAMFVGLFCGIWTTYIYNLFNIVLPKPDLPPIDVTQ
T11 sequence (Q8IDM6 whole entry T136C): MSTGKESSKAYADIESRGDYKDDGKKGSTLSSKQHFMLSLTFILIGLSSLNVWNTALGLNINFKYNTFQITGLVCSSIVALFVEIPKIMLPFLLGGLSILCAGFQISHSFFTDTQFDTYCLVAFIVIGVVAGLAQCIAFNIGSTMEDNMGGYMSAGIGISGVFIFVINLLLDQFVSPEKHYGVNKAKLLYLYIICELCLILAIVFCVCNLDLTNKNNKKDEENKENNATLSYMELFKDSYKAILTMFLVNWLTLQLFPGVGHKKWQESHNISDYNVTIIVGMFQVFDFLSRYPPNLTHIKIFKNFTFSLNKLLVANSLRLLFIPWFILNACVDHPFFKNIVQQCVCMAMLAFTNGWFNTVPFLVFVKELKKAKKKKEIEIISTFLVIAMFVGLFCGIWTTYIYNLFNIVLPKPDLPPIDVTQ
T13 sequence (Q8IDM6 whole entry N51C): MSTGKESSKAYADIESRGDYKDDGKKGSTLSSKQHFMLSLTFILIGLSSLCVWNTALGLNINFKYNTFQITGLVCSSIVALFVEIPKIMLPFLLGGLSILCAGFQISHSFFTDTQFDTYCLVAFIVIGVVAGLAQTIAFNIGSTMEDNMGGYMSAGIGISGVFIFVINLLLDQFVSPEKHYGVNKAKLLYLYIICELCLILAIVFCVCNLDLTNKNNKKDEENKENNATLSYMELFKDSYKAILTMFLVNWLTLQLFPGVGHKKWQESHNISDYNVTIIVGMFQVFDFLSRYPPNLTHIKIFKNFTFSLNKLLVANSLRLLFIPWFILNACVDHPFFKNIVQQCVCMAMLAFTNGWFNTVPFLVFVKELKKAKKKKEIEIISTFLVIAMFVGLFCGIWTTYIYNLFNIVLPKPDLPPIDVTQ
T17 sequence (Q8IDM6 whole entry V52C): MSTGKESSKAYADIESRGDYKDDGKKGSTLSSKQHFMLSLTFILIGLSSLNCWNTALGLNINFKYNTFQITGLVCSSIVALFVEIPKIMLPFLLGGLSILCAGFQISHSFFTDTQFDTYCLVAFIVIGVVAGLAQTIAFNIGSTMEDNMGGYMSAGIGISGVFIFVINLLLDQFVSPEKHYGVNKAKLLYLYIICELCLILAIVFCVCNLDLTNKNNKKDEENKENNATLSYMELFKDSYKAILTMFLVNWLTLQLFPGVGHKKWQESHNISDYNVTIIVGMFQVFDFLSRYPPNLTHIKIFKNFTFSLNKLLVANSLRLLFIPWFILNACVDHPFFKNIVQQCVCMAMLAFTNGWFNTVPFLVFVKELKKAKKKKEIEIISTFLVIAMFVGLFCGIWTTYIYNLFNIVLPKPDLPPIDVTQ
T7 sequence (Q8IDM6 whole entry S48C): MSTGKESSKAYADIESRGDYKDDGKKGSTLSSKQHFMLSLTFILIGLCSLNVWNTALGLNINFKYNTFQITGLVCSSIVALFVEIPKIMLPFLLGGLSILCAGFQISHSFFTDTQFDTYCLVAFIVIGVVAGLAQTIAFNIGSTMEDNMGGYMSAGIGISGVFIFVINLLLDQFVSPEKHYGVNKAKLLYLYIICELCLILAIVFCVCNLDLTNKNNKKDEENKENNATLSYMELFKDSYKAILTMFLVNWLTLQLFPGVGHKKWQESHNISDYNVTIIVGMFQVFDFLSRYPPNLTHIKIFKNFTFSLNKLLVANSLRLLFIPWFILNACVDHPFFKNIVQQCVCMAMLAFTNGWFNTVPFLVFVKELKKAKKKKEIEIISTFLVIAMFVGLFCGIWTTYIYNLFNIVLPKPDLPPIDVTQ
T1 sequence (Q8IDM6 whole entry S49C): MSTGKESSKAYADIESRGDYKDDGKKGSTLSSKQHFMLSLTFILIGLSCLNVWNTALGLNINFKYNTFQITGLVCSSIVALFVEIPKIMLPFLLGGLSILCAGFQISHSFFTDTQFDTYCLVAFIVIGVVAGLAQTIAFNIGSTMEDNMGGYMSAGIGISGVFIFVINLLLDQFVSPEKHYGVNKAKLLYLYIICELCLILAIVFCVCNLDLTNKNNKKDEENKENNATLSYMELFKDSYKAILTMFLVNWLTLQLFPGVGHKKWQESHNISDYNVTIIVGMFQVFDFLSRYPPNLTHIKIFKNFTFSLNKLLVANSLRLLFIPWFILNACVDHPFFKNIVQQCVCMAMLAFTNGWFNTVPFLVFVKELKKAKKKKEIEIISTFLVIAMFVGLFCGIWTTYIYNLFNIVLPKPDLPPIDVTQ
T5 sequence (Q8IDM6 whole entry F288C): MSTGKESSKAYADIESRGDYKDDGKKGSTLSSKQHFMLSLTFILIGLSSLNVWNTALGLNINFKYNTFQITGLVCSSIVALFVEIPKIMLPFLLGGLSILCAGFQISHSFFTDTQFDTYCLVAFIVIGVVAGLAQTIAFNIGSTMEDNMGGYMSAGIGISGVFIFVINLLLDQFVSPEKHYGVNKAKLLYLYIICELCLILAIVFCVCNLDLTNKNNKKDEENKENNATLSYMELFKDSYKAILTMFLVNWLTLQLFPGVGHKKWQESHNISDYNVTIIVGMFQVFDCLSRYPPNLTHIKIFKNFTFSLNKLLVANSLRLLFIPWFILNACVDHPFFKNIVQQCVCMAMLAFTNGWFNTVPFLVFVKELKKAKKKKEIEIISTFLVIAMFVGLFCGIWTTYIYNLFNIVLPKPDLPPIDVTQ
T2 sequence (Q8IDM6 whole entry A134C): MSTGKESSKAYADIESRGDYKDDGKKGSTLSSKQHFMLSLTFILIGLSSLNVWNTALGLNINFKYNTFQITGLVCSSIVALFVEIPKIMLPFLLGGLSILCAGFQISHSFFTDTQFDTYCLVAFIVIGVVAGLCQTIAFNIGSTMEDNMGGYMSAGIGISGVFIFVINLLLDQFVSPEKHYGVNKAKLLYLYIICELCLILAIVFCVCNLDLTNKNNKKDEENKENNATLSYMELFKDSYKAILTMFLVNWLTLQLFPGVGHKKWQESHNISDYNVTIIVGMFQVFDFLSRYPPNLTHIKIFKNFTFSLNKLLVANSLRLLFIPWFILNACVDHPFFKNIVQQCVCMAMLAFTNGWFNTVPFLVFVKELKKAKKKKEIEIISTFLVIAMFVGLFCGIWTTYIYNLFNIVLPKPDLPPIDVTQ
T14 sequence (Q8IDM6 whole entry F286C): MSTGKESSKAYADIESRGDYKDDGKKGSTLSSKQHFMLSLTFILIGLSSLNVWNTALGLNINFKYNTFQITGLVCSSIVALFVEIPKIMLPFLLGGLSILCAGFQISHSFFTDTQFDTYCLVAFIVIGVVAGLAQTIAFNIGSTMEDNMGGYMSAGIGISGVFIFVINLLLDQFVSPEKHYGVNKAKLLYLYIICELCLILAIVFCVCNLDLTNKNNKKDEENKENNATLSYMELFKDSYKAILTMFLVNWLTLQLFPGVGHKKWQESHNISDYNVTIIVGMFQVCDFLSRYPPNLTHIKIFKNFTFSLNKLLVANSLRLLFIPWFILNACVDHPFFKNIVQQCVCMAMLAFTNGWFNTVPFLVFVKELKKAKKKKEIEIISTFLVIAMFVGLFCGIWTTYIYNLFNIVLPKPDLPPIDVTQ
T12 sequence (Q8IDM6 whole entry R291C): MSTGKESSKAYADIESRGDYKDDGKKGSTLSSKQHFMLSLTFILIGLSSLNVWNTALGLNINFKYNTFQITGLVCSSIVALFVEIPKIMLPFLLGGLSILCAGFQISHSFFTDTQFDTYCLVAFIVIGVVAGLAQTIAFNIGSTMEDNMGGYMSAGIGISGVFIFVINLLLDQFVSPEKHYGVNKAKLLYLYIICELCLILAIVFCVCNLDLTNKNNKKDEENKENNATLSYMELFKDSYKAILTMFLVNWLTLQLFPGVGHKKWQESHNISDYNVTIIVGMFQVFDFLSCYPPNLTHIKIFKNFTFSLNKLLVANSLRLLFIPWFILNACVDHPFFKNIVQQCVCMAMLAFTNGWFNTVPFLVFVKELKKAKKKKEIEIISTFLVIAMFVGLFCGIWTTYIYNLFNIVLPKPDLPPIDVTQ

With `O=c1ccn([C@@H]2O[C@H](CO)[C@@H](O)[C@H]2O)c(=O)[nH]1` [Uridine, uridine] as the compound, how does the IC50 (PfENT1 S49C) read?
Its IC50 is 1060 ± 30 µM.

What about the “Mutant/WT Ratio Uridine” value (PfENT1 S49C; S49C, ratio of IC50 values) of the same compound?
The value was 1.06.

And the IC50 (PfENT1 A134C)?
Its IC50 is 1020 ± 207 µM.

What about the “Mutant/WT Ratio Uridine” value (PfENT1 A134C; A134C, ratio of IC50 values) of the same compound?
The value was 1.02.

What about the “Average IC50 (μM) Uridine” value (PfENT1 D287C) of the same compound?
Its value is “no uptake”.

What about the “Average IC50 (μM) Uridine” value (PfENT1 Q135C) of the same compound?
Its value is “no uptake”.

What about the IC50 (PfENT1 F288C) of the same compound?
The IC50 was 850 ± 138 µM.

And the “Mutant/WT Ratio Uridine” value (PfENT1 F288C; F288C, ratio of IC50 values)?
The value was 0.85.

What about the IC50 (WT PfENT1) of the same compound?
The IC50 was 997 ± 90 µM.

And the IC50 (PfENT1 S48C)?
Its IC50 is 801 ± 46 µM.

What about the “Mutant/WT Ratio Uridine” value (PfENT1 S48C; S48C, ratio of IC50 values) of the same compound?
Its value is 0.8.

What about the “Average IC50 (μM) Uridine” value [1] of the same compound?
Its value is “no uptake”.

What about the “Average IC50 (μM) Uridine” value (PfENT1 S290C) of the same compound?
Its value is “no uptake”.

And the “Average IC50 (μM) Uridine” value (PfENT1 W53C)?
The value was “no uptake”.

What about the “Average IC50 (μM) Uridine” value (PfENT1 L50C) of the same compound?
Its value is “no uptake”.

And the IC50 (PfENT1 T136C)?
Its IC50 is 786 ± 87 µM.

And the “Mutant/WT Ratio Uridine” value (PfENT1 T136C; T136C, ratio of IC50 values)?
Its value is 0.79.

And the “Average IC50 (μM) Uridine” value (PfENT1 R291C)?
The value was “no uptake”.

What about the IC50 (PfENT1 N51C) of the same compound?
The IC50 was 30.9 ± 1 µM.

And the “Mutant/WT Ratio Uridine” value (PfENT1 N51C; N51C, ratio of IC50 values)?
Its value is 0.031.

What about the IC50 (PfENT1 F286C) of the same compound?
The IC50 was 1210 ± 139 µM.

What about the “Mutant/WT Ratio Uridine” value (PfENT1 F286C; F286C, ratio of IC50 values) of the same compound?
Its value is 1.21.

What about the IC50 (PfENT1 L289C) of the same compound?
Its IC50 is 905 ± 164 µM.

What about the “Mutant/WT Ratio Uridine” value (PfENT1 L289C; L289C, ratio of IC50 values) of the same compound?
The value was 0.91.

And the IC50 (PfENT1 I137C)?
The IC50 was 904 ± 21 µM.

What about the “Mutant/WT Ratio Uridine” value (PfENT1 I137C; I137C, ratio of IC50 values) of the same compound?
The value was 0.91.

What about the IC50 (PfENT1 V52C) of the same compound?
The IC50 was 2820 ± 1440 µM.

What about the “Mutant/WT Ratio Uridine” value (PfENT1 V52C; V52C, ratio of IC50 values) of the same compound?
The value was 2.83.
